Data reported in patent publication US20220396565A1 (Hoffmann-La Roche Inc., priority 2020, published 2022).
Counter-ions that a name gives are not always drawn.

These compounds were tested on Acinetobacter baumannii ATCC17978 (assay: Antimicrobial susceptibility testing: 90% growth inhibitory concentration (IC90) determination, Iso-Sensitest broth). Details: 90% growth inhibitory concentration, Acinetobacter baumannii ATCC17978, Iso-Sensitest broth; read-out: ATCC 17978 IC90.
Assay type: cell-based
How it was run: (§1)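 Twofold serial dilutions (e.g. 10 to 0.02 μM final) were tested in Iso-Sensitest broth against ~5×10^(5) CFU/ml at 35±2 °C. OD600 was read every 20 min over 16 h. IC90 was derived from growth inhibition during the logarithmic phase.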

| IC90 | Structure (SMILES) |
| --- | --- |
| 290 nM | COc1ccc(-c2cnc(C(=O)Nc3ccc(C(=O)N4CCN(CCN(C)C)CC4)c(Cl)c3)n2C)cc1F [Example 274, N-[3-chloro-4-[4-[2-(dimethylamino)ethyl]piperazine-1-carbonyl]phenyl]-5-(3-fluoro-4-methoxy-phenyl)-1-methyl-imidazole-2-carboxamide formate] |
| 100 nM | Cn1c(-c2ccc(OCC#N)c(F)c2F)cnc1C(=O)Nc1ccc(C(=O)N2CCC(C(=O)N3CCOCC3)CC2)c(Cl)c1 [Example 74, N-(3-chloro-4-(4-(morpholine-4-carbonyl)piperidine-1-carbonyl)phenyl)-5-(4-(cyanomethoxy)-2,3-difluorophenyl)-1-methyl-1H-imidazole-2-carboxamide] |
| 90 nM | Cn1c(-c2ccc(OCC#N)c(F)c2F)cnc1C(=O)Nc1ccc(C(=O)N2CCN(C(=O)[C@@H]3C[C@@H](O)CN3)CC2)c(Cl)c1 [Example 202, N-(3-chloro-4-(4-((2S,4R)-4-hydroxypyrrolidine-2-carbonyl)piperazine-1-carbonyl)phenyl)-5-(4-(cyanomethoxy)-2,3-difluorophenyl)-1-methyl-1H-imidazole-2-carboxamide 2,2,2-trifluoroacetate] |
| 80 nM | COc1ccc(-c2cnc(C(=O)Nc3ccc(C(=O)N4CCN(CCN(C)C)CC4)c(Cl)c3)n2C)c(F)c1F [Example 278, N-[3-chloro-4-[4-[2-(dimethylamino)ethyl]piperazine-1-carbonyl]phenyl]-5-(2,3-difluoro-4-methoxy-phenyl)-1-methyl-imidazole-2-carboxamide formate] |
| 140 nM | COc1ccc(-c2cnc(C(=O)Nc3ccc(C(=O)N4CCN(C(=O)[C@H]5C[C@@H](O)CN5)CC4)c(Cl)c3)n2C)c(Cl)c1F [Example 115, 5-(2-chloro-3-fluoro-4-methoxy-phenyl)-N-[3-chloro-4-[4-[(2R,4R)-4-hydroxypyrrolidine-2-carbonyl]piperazine-1-carbonyl]phenyl]-1-methyl-imidazole-2-carboxamide formate] |
| 210 nM | Cn1c(-c2ccc(OCC#N)c(F)c2F)cnc1C(=O)Nc1ccc(C(=O)N2CCC(C(=O)N3CCSCC3)CC2)c(Cl)c1 [Example 76, N-(3-chloro-4-(4-(thiomorpholine-4-carbonyl)piperidine-1-carbonyl)phenyl)-5-(4-(cyanomethoxy)-2,3-difluorophenyl)-1-methyl-1H-imidazole-2-carboxamide] |
| 50 nM | Cn1c(-c2ccc(OCC#N)c(F)c2F)cnc1C(=O)Nc1ccc(C(=O)N2CCN(C(=O)C3(O)CCNCC3)CC2)c(Cl)c1 [Example 207, N-(3-chloro-4-(4-(4-hydroxypiperidine-4-carbonyl)piperazine-1-carbonyl)phenyl)-5-(4-(cyanomethoxy)-2,3-difluorophenyl)-1-methyl-1H-imidazole-2-carboxamide 2,2,2-trifluoroacetate] |
| 100 nM | CNCC(=O)N1CCN(C(=O)c2ccc(NC(=O)c3ncc(-c4ccc(OCC#N)c(F)c4F)n3C)cc2C)CC1 [Example 206, 5-(4-(cyanomethoxy)-2,3-difluorophenyl)-1-methyl-N-(3-methyl-4-(4-(methylglycyl)piperazine-1-carbonyl)phenyl)-1H-imidazole-2-carboxamide 2,2,2-trifluoroacetate] |
| 70 nM | Cn1c(-c2ccc(OCC#N)c(F)c2F)cnc1C(=O)Nc1ccc(C(=O)N2CCN(C(=O)C3CCNCC3)CC2)c(Cl)c1 [Example 196, N-(3-chloro-4-(4-(piperidine-4-carbonyl)piperazine-1-carbonyl)phenyl)-5-(4-(cyanomethoxy)-2,3-difluorophenyl)-1-methyl 1H-imidazole-2-carboxamide formate] |
| 30 nM | Cn1c(-c2ccc(OCC#N)c(F)c2F)cnc1C(=O)Nc1ccc(C(=O)N2CCN(C(=O)[C@@H]3CCCN3)CC2)c(Cl)c1 [Example 198, (S)-N-(3-chloro-4-(4-prolylpiperazine-1-carbonyl)phenyl)-5-(4-(cyanomethoxy)-2,3-difluorophenyl)-1-methyl-1H-imidazole-2-carboxamide 2,2,2-trifluoroacetate] |
| 120 nM | Cc1cc(NC(=O)c2ncc(-c3ccc(OCC#N)c(F)c3F)n2C)ccc1C(=O)N1CCC(C(=O)N2CCOCC2)CC1 [Example 78, 5-(4-(cyanomethoxy)-2,3-difluorophenyl)-1-methyl-N-(3-methyl-4-(4-(morpholine-4-carbonyl)piperidine-1-carbonyl)phenyl)-1H-imidazole-2-carboxamide] |
| 300 nM | COc1ccc(-c2cnc(C(=O)Nc3ccc(C(=O)N4CCC(CN)CC4)c(Cl)c3)n2C)c(F)c1F [Example 16, N-[4-[4-(aminomethyl)piperidine-1-carbonyl]-3-chloro-phenyl]-5-(2,3-difluoro-4-methoxy-phenyl)-1-methyl-imidazole-2-carboxamide trifluoroacetate] |
| 90 nM | Cc1cc(NC(=O)c2ncc(-c3ccc(OCC#N)c(F)c3F)n2C)ccc1C(=O)N1CCN(C(=O)[C@@H]2CCNC2)CC1 [Example 203, (R)-5-(4-(cyanomethoxy)-2,3-difluorophenyl)-1-methyl-N-(3-methyl-4-(4-(pyrrolidine-3-carbonyl)piperazine-1-carbonyl)phenyl)-1H-imidazole-2-carboxamide 2,2,2-trifluoroacetate] |
| 110 nM | COc1ccc(-c2cnc(C(=O)Nc3ccc(C(=O)N4CCN(C(=O)[C@@H]5C[C@H](O)CN5)CC4)c(Cl)c3)n2C)c(Cl)c1F [Example 114, 5-(2-chloro-3-fluoro-4-methoxy-phenyl)-N-[3-chloro-4-[4-[(2S,4S)-4-hydroxypyrrolidine-2-carbonyl]piperazine-1-carbonyl]phenyl]-1-methyl-imidazole-2-carboxamide formate] |

Same assay, conditions: Acinetobacter baumannii, ATCC17978, read-out: ATCC 17978 IC90

| Structure (SMILES) | IC90 |
| --- | --- |
| CN(C)CCN1CCN(C(=O)c2ccc(NC(=O)c3ncc(-c4ccc(OCC#N)c(Cl)c4)n3C)cc2Cl)CC1 [Example 269, 5-[3-Chloro-4-(cyanomethoxy)phenyl]-N-[3-chloro-4-[4-[2-(dimethylamino)ethyl]piperazine-1-carbonyl]phenyl]-1-methyl-imidazole-2-carboxamide trifluoroacetate] | 70 nM |
| Cc1cc(NC(=O)c2ncc(-c3ccc(OCC#N)c(F)c3F)n2C)ccc1C(=O)N1CCC(C(=O)N2CC(N)C2)CC1 [Example 79, N-(4-(4-(3-aminoazetidine-1-carbonyl)piperidine-l-carbonyl)-3-methylphenyl)-5-(4-(cyanomethoxy)-2,3-difluorophenyl)-1-methyl-1H-imidazole-2-carboxamide 2,2,2-trifluoroacetate] | 210 nM |

Each compound was assayed on Acinetobacter baumannii ATCC17961 in the same assay as above. Details: Acinetobacter baumannii, ATCC17961, 90% growth inhibitory concentration, Acinetobacter baumannii ATCC17961, Iso-Sensitest broth; read-out: ATCC 17961 IC90.
Assay type: cell-based
How it was run: as §1

| IC90 | Structure (SMILES) |
| --- | --- |
| 800 nM | Cn1c(-c2ccc(OCC#N)c(F)c2F)cnc1C(=O)Nc1ccc(C(=O)N2CCN(C(=O)CN3CC[C@@H](C(=O)O)C3)CC2)c(Cl)c1 [Example 215, (R)-1-(2-(4-(2-chloro-4-(5-(4-(cyanomethoxy)-2,3-difluorophenyl)-1-methyl-1H-imidazole-2-carboxamido)benzoyl)piperazin-1-yl)-2-oxoethyl)pyrrolidine-3-carboxylic acid 2,2,2-trifluoroacetic acid] |
| 470 nM | COc1ccc(-c2cnc(C(=O)Nc3ccc(C(=O)N4CCC(C(=O)N5C[C@H]6CCN[C@H]6C5)C4)c(Cl)c3)n2C)c(F)c1F (stereo partly drawn) [Example 71, N-[4-[3-[(3aR,6aR)-2,3,3a,4,6,6a-hexahydro-1H-pyrrolo[3,4-b]pyrrole-5-carbonyl]pyrrolidine-1-carbonyl]-3-chloro-phenyl]-5-(2,3-difluoro-4-methoxy-phenyl)-1-methyl-imidazole-2-carboxamide formate] |
| 80 nM | Cn1c(-c2ccc(OCC#N)c(F)c2F)cnc1C(=O)Nc1ccc(C(=O)N2CCN(C(=O)[C@@H]3C[C@H](N)CN3)CC2)c(Cl)c1 [Example 209, N-(4-(4-((2S,4S)-4-aminopyrrolidine-2-carbonyl)piperazine-1-carbonyl)-3-chlorophenyl)-5-(4-(cyanomethoxy)-2,3-difluorophenyl)-1-methyl 1H-imidazole-2-carboxamide] |
| 30 nM | Cn1c(-c2ccc(OC(F)F)c(F)c2F)cnc1C(=O)Nc1ccc(C(=O)N2CCC(C(=O)N[C@H]3CNC[C@H]3F)CC2)c(Cl)c1 [Example 44, 1-[2-chloro-4-[[5-[4-(difluoromethoxy)-2,3-difluoro-phenyl]-1-methyl-imidazole-2-carbonyl]amino]benzoyl]-N-[(3S,4R)-4-fluoropyrrolidin-3-yl]piperidine-4-carboxamide trifluoroacetate] |
| 40 nM | Cn1c(-c2ccc(OCF)c(F)c2F)cnc1C(=O)Nc1ccc(C(=O)N2CCC(C(=O)N[C@@H]3CCNC3)CC2)c(Cl)c1 [Example 90, (R)-1-(2-chloro-4-(5-(2,3-difluoro-4-(fluoromethoxy)phenyl)-1-methyl-1H-imidazole-2-carboxamido)benzoyl)-N-(pyrrolidin-3-yl)piperidine-4-carboxamide 2,2,2-trifluoroacetate] |

Same assay, conditions: Acinetobacter baumannii, ATCC17961, read-out: ATCC 17961 IC90

| Structure (SMILES) | IC90 |
| --- | --- |
| Cn1c(-c2ccc(OCC#N)c(F)c2F)cnc1C(=O)Nc1ccc(C(=O)N2CCN(C(=O)[C@H]3CCCNC3)CC2)c(Cl)c1 [Example 208, (S)-N-(3-chloro-4-(4-(piperidine-3-carbonyl)piperazine-1-carbonyl)phenyl)-5-(4-(cyanomethoxy)-2,3-difluorophenyl)-1-methyl 1H-imidazole-2-carboxamide 2,2,2-trifluoroacetate] | 50 nM |
| Cn1c(-c2ccc(OCF)cc2F)cnc1C(=O)Nc1ccc(C(=O)N2CCN(C(=O)C3CCNCC3)CC2)c(Cl)c1 [Example 25, N-(3-chloro-4-(4-(piperidine-4-carbonyl)piperazine-l-carbonyl)phenyl)-5-(2-fluoro-4-(fluoromethoxy)phenyl)-1-methyl-1H-imidazole-2-carboxamide formate] | 60 nM |
